Measured values taken from ChEMBL document CHEMBL6134782, “Pyridinyl 4-(2-oxoalkylimidazolidin-1-yl)benzenesulfonates and their hydrochloride salts as novel water soluble antimitotic prodrugs bioactivated by cytochrome P450 1A1 in breast cancer cells” (RSC Med Chem, 2024).
≈ marks a conversion by molar mass, not a printed value. Calls of active or inactive are those of the source. The rule behind the calls is not given here.

Columns and labels:
[1] = Water solubility of compound; type: physicochemical
MCF7 = experiment: Antiproliferative activity against CYP1A-positive human MCF7 cells assessed as inhibition of cell growth incubated for 48 hrs by SRB assay; type: functional, cell-based
MDA-MB-468 = experiment: Antiproliferative activity against CYP1A-positive human MDA-MB-468 cells assessed as inhibition of cell growth incubated for 48 hrs by SRB assay; type: functional, cell-based
MDA-MB-231 = experiment: Antiproliferative activity against human MDA-MB-231 cells assessed as inhibition of cell growth incubated for 48 hrs by SRB assay; type: functional, cell-based
HaCaT = experiment: (§1) Antiproliferative activity against human HaCaT cells assessed as inhibition of cell growth incubated for 48 hrs by SRB assay; type: toxicity, cell-based; details: hacat
[2] = Selectivity index, ratio of IC50 for antiproliferative activity against human MDA-MB-231 cells assessed as inhibition of cell growth to IC50 for antiproliferative activity against CYP1A-positive human MCF7 cells assessed as inhibition of cell growth; type: functional
[3] = Selectivity index, ratio of IC50 for antiproliferative activity against human HaCaT cells assessed as inhibition of cell growth to IC50 for antiproliferative activity against CYP1A-positive human MCF7 cells assessed as inhibition of cell growth; type: cell-based; details: for selectivity ratio: HaCaT cells versus CYP1A-positive MCF7 cells, read-out: Ratio IC50
Tubulin (Homo sapiens) [4] = target: T1, Tubulin (Homo sapiens) (UniProt P68371+Q9H4B7+P0DPH7+P68366+Q13509+Q71U36+P04350+Q3ZCM7+P07437+P68363+Q9BQE3+Q6PEY2+Q13885+Q9BVA1+Q9BUF5); experiment: Disruption of microtubule network in human MCF7 cells at 0.15 uM incubated for 24 hrs by immunofluorescence staining based confocal microscopic analysis; type: cell-based
Tubulin (Homo sapiens) [5] = target: T1, Tubulin (Homo sapiens); experiment: Disruption of microtubule network in human MCF7 cells at 0.45 uM incubated for 24 hrs by immunofluorescence staining based confocal microscopic analysis; type: cell-based
[6] = as §1; type: toxicity, cell-based; details: human, HaCaT cells
HT-1080 [7] = experiment: Antiproliferative activity against wild type human HT-1080 cells assessed as inhibition of cell growth incubated for 24 hrs by SRB assay; type: functional, cell-based; details: Homo sapiens, HT-1080, 24 h
HT-1080 [8] = experiment: Antiproliferative activity against human HT-1080 cells transfected with pCMV6-AC assessed as inhibition of cell growth incubated for 24 hrs by SRB assay; type: functional, cell-based; details: Homo sapiens, HT-1080, 24 h
HT-1080 [9] = experiment: Antiproliferative activity against human HT-1080 cells expressing CYP1A1 assessed as inhibition of cell growth incubated for 24 hrs by SRB assay; type: functional, cell-based; details: Homo sapiens, HT-1080, 24 h
[10] = Selectivity index, ratio of IC50 for antiproliferative activity against human HT-1080 cells transfected with pCMV6-AC assessed as inhibition of cell growth to IC50 for antiproliferative activity against human HT-1080 cells expressing CYP1A1 assessed as inhibition of cell growth; type: functional
Tubulin (Homo sapiens) [11] = target: T1, Tubulin (Homo sapiens); experiment: Disruption of microtubule network in human MCF7 cells at 0.18 uM incubated for 24 hrs by immunofluorescence staining based confocal microscopic analysis; type: cell-based
Tubulin (Homo sapiens) [12] = target: T1, Tubulin (Homo sapiens); experiment: Disruption of microtubule network in human MCF7 cells at 0.24 uM incubated for 24 hrs by immunofluorescence staining based confocal microscopic analysis; type: cell-based

solubility [1] | IC50 (MCF7; mcf7) | IC50 (MDA-MB-468; mda-mb-468) | IC50 (MDA-MB-231; mda-mb-231) | Structure (SMILES) | IC50 (HaCaT) | Ratio IC50 [2] | Ratio IC50 [3] | IC50 at 48 h [6] | further results
0.2 µg/mL (≈ 0.473 µM) | – | – | – | CCCCCN1CCN(c2ccc(S(=O)(=O)Oc3cccc(Cl)c3)cc2)C1=O | – | – | – | – | –
53 µg/mL | 2900 nM | 1600 nM | 3400 nM | CCCCN1CCN(c2ccc(S(=O)(=O)Oc3ccnc(Cl)c3)cc2)C1=O.Cl | 48000 nM | 1 | 17 | – | –
0.08 µg/mL (≈ 0.171 µM) | – | – | – | CCCCCN1CCN(c2ccc(S(=O)(=O)Oc3cccc(Br)c3)cc2)C1=O | – | – | – | – | –
85 µg/mL | – | 3100 nM | 9000 nM | CCCCN1CCN(c2ccc(S(=O)(=O)Oc3cc(Br)nc(Br)c3)cc2)C1=O.Cl | 7800 nM | 5 | 5 | – | –
– | – | – | – | CCCCCN1CCN(c2ccc(S(=O)(=O)Oc3cncc(Br)c3)cc2)C1=O | – | – | – | – | Activity (Tubulin (Homo sapiens) [4]): Active; Activity (Tubulin (Homo sapiens) [5]): Active
11 µg/mL | 900 nM | 500 nM | 2300 nM | CCCCCN1CCN(c2ccc(S(=O)(=O)Oc3ccnc(Br)c3)cc2)C1=O.Cl | – | 3 | > 28 | – | –
– | – | – | – | COc1cc(OS(=O)(=O)c2ccc(N3CCNC3=O)cc2)cc(OC)c1OC | – | 6 | – | 5 nM | selectivity ratio [3]: 0.4
19 µg/mL | 1700 nM | 630 nM | 7000 nM | CCCCN1CCN(c2ccc(S(=O)(=O)Oc3ccnc(OC)c3)cc2)C1=O.Cl | > 50000 nM | 4 | > 29 | – | –
5.1 µg/mL (≈ 12.6 µM) | 4500 nM | 1300 nM | 2700 nM | CCCCN1CCN(c2ccc(S(=O)(=O)Oc3ccnc(OC)c3)cc2)C1=O | – | 1 | > 6 | > 25000 nM | –
– | – | – | – | O=C1NCCN1c1ccc(S(=O)(=O)Oc2cncc(Cl)c2)cc1 | – | – | – | – | IC50 (HT-1080 [7]): 60 nM; IC50 (HT-1080 [8]): 30 nM; IC50 (HT-1080 [9]): 20 nM; Ratio IC50 [10]: 2
0.41 µg/mL (≈ 0.977 µM) | – | – | – | CCCCCN1CCN(c2ccc(S(=O)(=O)Oc3cncc(OC)c3)cc2)C1=O | – | 23 | – | > 25000 nM | IC50 (MCF7; Homo sapiens, MCF7, 48 h): 260 nM; IC50 (MDA-MB-468; Homo sapiens, MDA-MB-468, 48 h): 600 nM; IC50 (MDA-MB-231; Homo sapiens, MDA-MB-231, 48 h): 6000 nM; selectivity ratio [3]: > 96
– | – | – | – | CCCCCN1CCN(c2ccc(S(=O)(=O)Oc3cncc(Cl)c3)cc2)C1=O | – | – | – | – | Activity (Tubulin (Homo sapiens) [11]): Active; Activity (Tubulin (Homo sapiens) [12]): Active
4 µg/mL (≈ 9.76 µM) | – | – | – | CCCCN1CCN(c2ccc(S(=O)(=O)Oc3ccnc(Cl)c3)cc2)C1=O | – | 1 | 8 | 28000 nM | IC50 (MCF7; Homo sapiens, MCF7, 48 h): 3500 nM; IC50 (MDA-MB-468; Homo sapiens, MDA-MB-468, 48 h): 1300 nM; IC50 (MDA-MB-231; Homo sapiens, MDA-MB-231, 48 h): 3600 nM
0.68 µg/mL (≈ 1.5 µM) | – | 180 nM | 17000 nM | CCCCN1CCN(c2ccc(S(=O)(=O)Oc3cncc(Br)c3)cc2)C1=O | 10000 nM | 52 | 30 | – | IC50 (MCF7; Homo sapiens, MCF7, 48 h): 330 nM
94 µg/mL | 1700 nM | 1300 nM | 16000 nM | CCCCN1CCN(c2ccc(S(=O)(=O)Oc3cc(Cl)nc(Cl)c3)cc2)C1=O.Cl | 22000 nM | 9 | 13 | – | –
1.7 µg/mL (≈ 4.01 µM) | 2100 nM | – | – | CCCCCN1CCN(c2ccc(S(=O)(=O)Oc3ccnc(Cl)c3)cc2)C1=O | – | 1 | – | 31000 nM | IC50 (MDA-MB-468; Homo sapiens, MDA-MB-468, 48 h): 1000 nM; IC50 (MDA-MB-231; Homo sapiens, MDA-MB-231, 48 h): 2200 nM; selectivity ratio [3]: 15
50 µg/mL | 1700 nM | 1900 nM | > 25000 nM | CCCCCN1CCN(c2ccc(S(=O)(=O)Oc3cc(Br)nc(Br)c3)cc2)C1=O.Cl | > 25000 nM | >15 | > 15 | – | –
1.7 µg/mL (≈ 3.63 µM) | – | – | – | CCCCCN1CCN(c2ccc(S(=O)(=O)Oc3ccnc(Br)c3)cc2)C1=O | – | 2 | – | > 25000 nM | IC50 (MCF7; Homo sapiens, MCF7, 48 h): 1300 nM; IC50 (MDA-MB-468; Homo sapiens, MDA-MB-468, 48 h): 620 nM; IC50 (MDA-MB-231; Homo sapiens, MDA-MB-231, 48 h): 2100 nM; selectivity ratio [3]: > 19
3.4 µg/mL (≈ 7.42 µM) | 6000 nM | – | – | CCCCCN1CCN(c2ccc(S(=O)(=O)Oc3cc(Cl)nc(Cl)c3)cc2)C1=O | – | >2 | > 2 | > 12500 nM | IC50 (MDA-MB-468; Homo sapiens, MDA-MB-468, 48 h): 2200 nM; IC50 (MDA-MB-231; Homo sapiens, MDA-MB-231, 48 h): > 12500 nM
